Results taken from US20250213527A1, “FORMULATIONS OF PSILOCYBIN ANALOGS AND METHODS OF USE” (priority 2021, published 2025).
“Also recorded” adds a separate entry of the source.

Experiments:
[1] = Psilocin-d10 pharmacokinetics in female beagle dogs, oral gavage and intravenous (bolus); details: for AUC(0-inf) / AUC(0-t) / C0 / clearance / Cmax / Tmax / Vd / half-life / bioavailability: female, beagle, dog, plasma; for AUC(0-inf): AUC0-inf; for C0: C0, female dog plasma
[2] = Plasma pharmacokinetics and bioavailability in rats, oral gavage and intravenous (bolus); details: rat plasma, Group 1, IV, psilocin + psilocin-d10 1 + 1 mg/kg; label = analyte; IAD = immediately after dosing
[3] = Pharmacokinetics in male beagle dogs after oral administration by powder in capsule (PIC) or orally disintegrating tablet (ODT); details: dog, plasma, 5 mg
[4] = Stability on standing of amorphous form from DSC melt/crash cooling (XRPD); format: physicochemical; details: amorphous free base from melt/crash cooling (>185 °C/30 °C)
[5] = female dog plasma, single IV bolus 0.20 mg/kg, Mean (N=3)
[6] = female dog plasma, single IV bolus 0.20 mg/kg, Median (N=3)
[7] = female dog plasma, single IV bolus 0.20 mg/kg, animal 60F
[8] = female dog plasma, single IV bolus 0.20 mg/kg, animal 61F
[9] = female dog plasma, single IV bolus 0.20 mg/kg, animal 723F
[10] = female dog plasma, single oral gavage 1.00 mg/kg, Mean (N=3)
[11] = female dog plasma, single oral gavage 1.00 mg/kg, Median (N=3)
[12] = female dog plasma, single oral gavage 1.00 mg/kg, animal 60F
[13] = female dog plasma, single oral gavage 1.00 mg/kg, animal 61F
[14] = female dog plasma, single oral gavage 1.00 mg/kg, animal 723F
[15] = iv, 0.2 mg/kg, female dog plasma, single IV bolus 0.20 mg/kg, Mean (N=3)
[16] = iv, 0.2 mg/kg, female dog plasma, single IV bolus 0.20 mg/kg, animal 61F
[17] = po, 1 mg/kg, female dog plasma, single oral gavage 1.00 mg/kg, Mean (N=3)
[18] = po, 1 mg/kg, female dog plasma, single oral gavage 1.00 mg/kg, Median (N=3)
[19] = po, 1 mg/kg, female dog plasma, single oral gavage 1.00 mg/kg, animal 60F
[20] = po, 1 mg/kg, female dog plasma, single oral gavage 1.00 mg/kg, animal 61F
[21] = po, 1 mg/kg, female dog plasma, single oral gavage 1.00 mg/kg, animal 723F

With `[2H]C([2H])([2H])N(C([2H])([2H])[2H])C([2H])([2H])C([2H])([2H])c1c[nH]c2cccc(O)c12` [Compound I-3, 3-(2-(bis(methyl-d3)amino)ethyl-1,1,2,2-d4)-1H-indol-4-ol] the “time of last detectable plasma level” value ([1]; dogs, oral administration) was 8 h, the “time of peak plasma levels” value ([1]; dogs, oral administration) was 0.5 h and the “DN AUC0-inf” value [1, 5] was 448 (h*ng/mL)/(mg/kg). The “DN Cmax” value [1, 5] was 229 (ng/mL)/(mg/kg), the “DN AUC0-inf” value [1, 6] was 479 (h*ng/mL)/(mg/kg) and the “DN Cmax” value [1, 6] was 230 (ng/mL)/(mg/kg). The “DN AUC0-inf” value [1, 7] was 366 (h*ng/mL)/(mg/kg), the “DN Cmax” value [1, 7] was 230 (ng/mL)/(mg/kg) and the “DN AUC0-inf” value [1, 8] was 479 (h*ng/mL)/(mg/kg). For the same compound, the “DN Cmax” value [1, 8] was 220 (ng/mL)/(mg/kg), the “DN AUC0-inf” value [1, 9] was 500 (h*ng/mL)/(mg/kg) and the “DN Cmax” value [1, 9] was 239 (ng/mL)/(mg/kg). The “DN AUC0-inf” value [1, 10] was 405 (h*ng/mL)/(mg/kg), the “DN Cmax” value [1, 10] was 146 (ng/mL)/(mg/kg) and the “DN AUC0-inf” value [1, 11] was 414 (h*ng/mL)/(mg/kg). For the same compound, the “DN Cmax” value [1, 11] was 132 (ng/mL)/(mg/kg), the “DN AUC0-inf” value [1, 12] was 374 (h*ng/mL)/(mg/kg) and the “DN Cmax” value [1, 12] was 132 (ng/mL)/(mg/kg). The “DN AUC0-inf” value [1, 13] was 414 (h*ng/mL)/(mg/kg), the “DN Cmax” value [1, 13] was 179 (ng/mL)/(mg/kg) and the “DN AUC0-inf” value [1, 14] was 426 (h*ng/mL)/(mg/kg). The “DN Cmax” value [1, 14] was 126 (ng/mL)/(mg/kg), the AUC(0-inf) [1, 15] was 89.6 ng·h/mL and the AUC(0-inf) ([1]; iv, 0.2 mg/kg, female dog plasma, single IV bolus 0.20 mg/kg, Median (N=3)) was 95.8 ng·h/mL. The AUC(0-inf) ([1]; iv, 0.2 mg/kg, female dog plasma, single IV bolus 0.20 mg/kg, animal 60F) was 73.3 ng·h/mL, the AUC(0-inf) [1, 16] was 95.8 ng·h/mL and the AUC(0-inf) ([1]; iv, 0.2 mg/kg, female dog plasma, single IV bolus 0.20 mg/kg, animal 723F) was 99.9 ng·h/mL. For the same compound, the AUC(0-t) ([1]; iv, 0.2 mg/kg, AUC0-t, female dog plasma, single IV bolus 0.20 mg/kg, Mean (N=3)) was 77.8 ng·h/mL, the AUC(0-t) ([1]; iv, 0.2 mg/kg, AUC0-t, female dog plasma, single IV bolus 0.20 mg/kg, Median (N=3)) was 80.7 ng·h/mL and the AUC(0-t) ([1]; iv, 0.2 mg/kg, AUC0-t, female dog plasma, single IV bolus 0.20 mg/kg, animal 60F) was 67 ng·h/mL. For the same compound, the AUC(0-t) ([1]; iv, 0.2 mg/kg, AUC0-t, female dog plasma, single IV bolus 0.20 mg/kg, animal 61F) was 80.7 ng·h/mL, the AUC(0-t) ([1]; iv, 0.2 mg/kg, AUC0-t, female dog plasma, single IV bolus 0.20 mg/kg, animal 723F) was 85.8 ng·h/mL and the C0 ([1]; iv, 0.2 mg/kg, single IV bolus 0.20 mg/kg, Mean (N=3)) was 57.3 ng/mL. It also gave a C0 ([1]; iv, 0.2 mg/kg, single IV bolus 0.20 mg/kg, Median (N=3)) of 62 ng/mL, a C0 ([1]; iv, 0.2 mg/kg, single IV bolus 0.20 mg/kg, animal 60F) of 69.5 ng/mL and a C0 ([1]; iv, 0.2 mg/kg, single IV bolus 0.20 mg/kg, animal 61F) of 40.5 ng/mL. The C0 ([1]; iv, 0.2 mg/kg, single IV bolus 0.20 mg/kg, animal 723F) was 62 ng/mL, the clearance ([1]; iv, 0.2 mg/kg, CL, female dog plasma, single IV bolus 0.20 mg/kg, Mean (N=3)) was 37.8 mL/min/kg and the clearance ([1]; iv, 0.2 mg/kg, CL, female dog plasma, single IV bolus 0.20 mg/kg, animal 60F) was 45.5 mL/min/kg. It also gave a clearance ([1]; iv, 0.2 mg/kg, CL, female dog plasma, single IV bolus 0.20 mg/kg, animal 723F) of 33.3 mL/min/kg, a clearance ([1]; iv, 0.2 mg/kg, Clearance (CL), dogs) of 37.8 mL/min/kg and a Cmax ([1]; iv, 0.2 mg/kg, Cmax, female dog plasma, single IV bolus 0.20 mg/kg, Mean (N=3)) of 45.8 ng/mL. It also gave a Cmax ([1]; iv, 0.2 mg/kg, Cmax, female dog plasma, single IV bolus 0.20 mg/kg, Median (N=3)) of 45.9 ng/mL, a Cmax ([1]; iv, 0.2 mg/kg, Cmax, female dog plasma, single IV bolus 0.20 mg/kg, animal 60F) of 45.9 ng/mL and a Cmax ([1]; iv, 0.2 mg/kg, Cmax, female dog plasma, single IV bolus 0.20 mg/kg, animal 61F) of 43.9 ng/mL. It also gave a Cmax ([1]; iv, 0.2 mg/kg, Cmax, female dog plasma, single IV bolus 0.20 mg/kg, animal 723F) of 47.7 ng/mL, a Tmax [1, 15] of 20 min and a Tmax [1, 16] of 30 min. For the same compound, the Vd ([1]; iv, 0.2 mg/kg, Vss, female dog plasma, single IV bolus 0.20 mg/kg, Mean (N=3)) was 4.01 L/kg, the Vd ([1]; iv, 0.2 mg/kg, Vss, female dog plasma, single IV bolus 0.20 mg/kg, Median (N=3)) was 3.96 L/kg and the Vd ([1]; iv, 0.2 mg/kg, Vss, female dog plasma, single IV bolus 0.20 mg/kg, animal 60F) was 3.96 L/kg. It also gave a Vd ([1]; iv, 0.2 mg/kg, Vss, female dog plasma, single IV bolus 0.20 mg/kg, animal 61F) of 4.28 L/kg, a Vd ([1]; iv, 0.2 mg/kg, Vss, female dog plasma, single IV bolus 0.20 mg/kg, animal 723F) of 3.79 L/kg and a half-life ([1]; iv, 0.2 mg/kg, elimination half-life, dogs) of 81 min. The AUC(0-t) ([1]; iv, 0.2 mg/kg, mean AUC0-t, female dog plasma, single intravenous (bolus) dose) was 77.8 ng·h/mL, the Cmax ([1]; iv, 0.2 mg/kg, mean Cmax, female dog plasma, single intravenous (bolus) dose) was 45.8 ng/mL and the half-life ([1]; iv, 0.2 mg/kg, t1/2, female dog plasma, single IV bolus 0.20 mg/kg, Mean (N=3)) was 82.2 min. The half-life ([1]; iv, 0.2 mg/kg, t1/2, female dog plasma, single IV bolus 0.20 mg/kg, Median (N=3)) was 84.6 min, the half-life ([1]; iv, 0.2 mg/kg, t1/2, female dog plasma, single IV bolus 0.20 mg/kg, animal 60F) was 69.6 min and the half-life ([1]; iv, 0.2 mg/kg, t1/2, female dog plasma, single IV bolus 0.20 mg/kg, animal 61F) was 93 min. For the same compound, the half-life ([1]; iv, 0.2 mg/kg, t1/2, female dog plasma, single IV bolus 0.20 mg/kg, animal 723F) was 84.6 min, the Vd ([1]; iv, 0.2 mg/kg, volume of distribution at steady state (VSS), dogs, intravenous) was 4.01 L/kg and the AUC(0-inf) [1, 17] was 405 ng·h/mL. It also gave an AUC(0-inf) [1, 18] of 414 ng·h/mL, an AUC(0-inf) [1, 19] of 374 ng·h/mL and an AUC(0-inf) [1, 20] of 414 ng·h/mL. For the same compound, the AUC(0-inf) [1, 21] was 426 ng·h/mL, the AUC(0-t) ([1]; po, 1 mg/kg, AUC0-t, female dog plasma, single oral gavage 1.00 mg/kg, Mean (N=3)) was 387 ng·h/mL and the AUC(0-t) ([1]; po, 1 mg/kg, AUC0-t, female dog plasma, single oral gavage 1.00 mg/kg, Median (N=3)) was 399 ng·h/mL. For the same compound, the AUC(0-t) ([1]; po, 1 mg/kg, AUC0-t, female dog plasma, single oral gavage 1.00 mg/kg, animal 61F) was 399 ng·h/mL, the AUC(0-t) ([1]; po, 1 mg/kg, AUC0-t, female dog plasma, single oral gavage 1.00 mg/kg, animal 723F) was 404 ng·h/mL and the Cmax ([1]; po, 1 mg/kg, Cmax, female dog plasma, single oral gavage 1.00 mg/kg, Mean (N=3)) was 146 ng/mL. The Cmax ([1]; po, 1 mg/kg, Cmax, female dog plasma, single oral gavage 1.00 mg/kg, Median (N=3)) was 132 ng/mL, the Cmax ([1]; po, 1 mg/kg, Cmax, female dog plasma, single oral gavage 1.00 mg/kg, animal 60F) was 132 ng/mL and the Cmax ([1]; po, 1 mg/kg, Cmax, female dog plasma, single oral gavage 1.00 mg/kg, animal 61F) was 179 ng/mL. For the same compound, the Cmax ([1]; po, 1 mg/kg, Cmax, female dog plasma, single oral gavage 1.00 mg/kg, animal 723F) was 126 ng/mL, the bioavailability ([1]; po, 1 mg/kg, F (Bioavailability), female dog plasma, single oral gavage 1.00 mg/kg, Mean (N=3)) was 91.3% and the bioavailability ([1]; po, 1 mg/kg, F (Bioavailability), female dog plasma, single oral gavage 1.00 mg/kg, Median (N=3)) was 186%. It also gave a bioavailability ([1]; po, 1 mg/kg, F (Bioavailability), female dog plasma, single oral gavage 1.00 mg/kg, animal 60F) of 102%, a bioavailability ([1]; po, 1 mg/kg, F (Bioavailability), female dog plasma, single oral gavage 1.00 mg/kg, animal 61F) of 86.5% and a bioavailability ([1]; po, 1 mg/kg, F (Bioavailability), female dog plasma, single oral gavage 1.00 mg/kg, animal 723F) of 85.2%. It also gave a Tmax [1, 17] of 30 min, a Tmax [1, 18] of 30 min and a Tmax [1, 19] of 30 min. It also gave a Tmax [1, 20] of 30 min, a Tmax [1, 21] of 30 min and a half-life ([1]; po, 1 mg/kg, elimination half-life, dogs) of 106 min. It also gave an AUC(0-t) ([1]; po, 1 mg/kg, mean AUC0-t, female dog plasma, single oral (gavage) dose) of 387 ng·h/mL, a Cmax ([1]; po, 1 mg/kg, mean Cmax, female dog plasma, single oral (gavage) dose) of 146 ng/mL and a bioavailability ([1]; po, 1 mg/kg, mean oral bioavailability (%F), dogs, oral 1 mg/kg) of 91.3%. It also gave a half-life ([1]; po, 1 mg/kg, t1/2, female dog plasma, single oral gavage 1.00 mg/kg, Mean (N=3)) of 106 min, a half-life ([1]; po, 1 mg/kg, t1/2, female dog plasma, single oral gavage 1.00 mg/kg, Median (N=3)) of 108 min and a half-life ([1]; po, 1 mg/kg, t1/2, female dog plasma, single oral gavage 1.00 mg/kg, animal 60F) of 109 min. The half-life ([1]; po, 1 mg/kg, t1/2, female dog plasma, single oral gavage 1.00 mg/kg, animal 61F) was 101 min, the half-life ([1]; po, 1 mg/kg, t1/2, female dog plasma, single oral gavage 1.00 mg/kg, animal 723F) was 108 min and the Tmax [2] was “IAD”. For the same compound, the Tmax [3] was 30 min, the Tmax ([3]; oral) was 60 min and the “stability of amorphous form on standing” value [4] was “crystallized overnight to crystal polymorph pattern 2; also recorded: unstable upon standing”.
